Measured values from patent US20120316144A1, “ANTIFUNGAL AGENT” (priority 2010, published 2012).

Legend:
[1] = system: Malassezia; experiment: Antifungal (Malassezia) paper disk test of fractionated ingredients of mastic normal-hexane extract with squalene; type: cell-based; details: for diameter of antiproliferative circle, First time / diameter of antiproliferative circle, Second time / diameter of antiproliferative circle, Average: Malassezia, Mueller-Hinton media, fraction 5 mg/disk + squalene 25 mg/disk; for diameter of antiproliferative circle, Average: average of two runs; for anti-Malassezia activity (in words): combination with squalene, summary of Table 4
Description: The fractions fractionated in the first example were respectively dissolved in acetone. Paper disks for antibiotic assay which are the same as the paper disks for antibiotic assay used in the third example were impregnated with the obtained respective fraction solutions of 5 mg/disk. Moreover, squalene was added to each of the paper disks for antibiotic assay by 25 mg/disk, to prepare disks to be tested. Then, the respective disks to be tested were vacuum-dried to eliminate the acetone. Further, the Malassezia prepared to be approximately 10^6 CFU/ml was applied to the Mueller-Hinton media. Next, the respective disks to be tested were placed on the Mueller-Hinton media, and cultured for two days under an aerobic condition at 37° C. Then, the diameters (mm) of antiproliferative circles formed around the respective disks to be tested were measured.

[2] = system: Malassezia; experiment: Antifungal (Malassezia) paper disk test of mastic normal-hexane extract and squalene; type: cell-based; details: Mueller-Hinton media, squalene 25 mg/disk alone
Description: Mastic normal-hexane extract (MH) was dissolved in acetone. Then, paper disks for antibiotic assay which are the same as the paper disks for antibiotic assay used in the third example were impregnated with the obtained MH solution, to prepare a disk to be tested impregnated with the MH solution of 5 mg/disk, a disk to be tested impregnated with the MH solution of 10 mg/disk, and a disk to be tested impregnated with the MH solution of 20 mg/disk. These disks to be tested were prepared two each, respectively. Further, the S solution, which was obtained by dissolving squalene (S) in acetone, was added to each of some disks to be tested prepared in this way by 25 mg/disk, to prepare disks of mixture of the mastic normal-hexane extract and squalene (MH+S) as well. Further, as standard controls, paper disks for antibiotic assay which are the same as the paper disks for antibiotic assay used in the third example were impregnated with the S solution of 25 mg/disk, to prepare a disk to be tested. Then, the respective disks to be tested were vacuum-dried to eliminate the acetone. Further, the Malassezia prepared to be approximately 10^6 CFU/ml was applied to the Mueller-Hinton media. […] Then, the diameters (mm) of antiproliferative circles formed around the respective disks to be tested were measured.

SMILES | diameter of antiproliferative circle, First time [1] [mm] | diameter of antiproliferative circle, Second time [1] [mm] | diameter of antiproliferative circle, Average [1] [mm] | anti-Malassezia activity (in words) [1] | Antiproliferative Circles (mm) [2] [mm]
CC(C)=CCC[C@](C)(O)[C@H]1CC[C@]2(C)C1CCC1[C@@]3(C)CCC(=O)C(C)(C)[C@@H]3CC[C@]12C (stereo partly shown) [Fr. 8, 3-oxo-20-hydroxy-dammar-24-ene] | 25 | 24 | 24.5 | potent anti-Malassezia activity | 
CC(C)=CCC[C@H](C)[C@@H]1CC[C@]2(C)C3=C(CC[C@@]12C)[C@@]1(C)CC[C@H](O)C(C)(C)[C@@H]1CC3 [Fr. 5-1, Tirucallol] |  |  |  | potent anti-Malassezia activity | 
CC1(C)C=C2C(=CC[C@]3(C)C2CC[C@@H]2[C@@]4(C)CCC(=O)C(C)(C)[C@@H]4CC[C@]23C)CC1 (stereo partly shown) [Fr. 1, 3-oxo-28-norolean-16,18-diene] | 25 | 22 | 23.5 | potent anti-Malassezia activity | 
CC1(C)CC[C@]2(C=O)CC[C@]3(C)C(=CC[C@@H]4[C@@]5(C)CCC(=O)C(C)(C)[C@@H]5CC[C@]43C)C2C1 (stereo partly shown) [Fr. 3, olean-12-en-3,28-dione] | 25 | 25 | 25 | potent anti-Malassezia activity | 
CC1(C)CCC2(O)CC[C@]3(C)C(=CC[C@@H]4[C@@]5(C)CCC(=O)C(C)(C)[C@@H]5CC[C@]43C)C2C1 (stereo partly shown) [Fr. 6, 3-oxo-17-hydroxy-norolean-12-ene] | 21 | 19 | 20 | potent anti-Malassezia activity | 
CC(C)=CCC/C(C)=C/CC/C(C)=C/CC/C=C(\C)CC/C=C(\C)CCC=C(C)C [S, squalene] |  |  |  |  | 11
CC1(C)CC[C@]2(C)CC[C@]3(C)C(=CC[C@@H]4[C@@]5(C)CC[C@H](O)C(C)(C)[C@@H]5CC[C@]43C)C2C1 (stereo partly drawn) [Fr. 5-2, β-amylin] |  |  |  | potent anti-Malassezia activity | 
